Results published in a compilation of properties of binary mixtures (doi:10.1016/j.molliq.2017.07.014).

Assay: xn = mol fraction of the nth substance listed
Conditions: 101 kPa

CN1CCCC1=O + CCCC[P+](C)(CCCC)CCCC.COS(=O)(=O)[O-]
x2 = 0
Conditions | speed of sound [m/s] | viscosity [mPa·s]
293.15 K | 1570 | 1.9
298.15 K | 1566 | 1.66
303.15 K | 1552 | 1.49
308.15 K | 1527 | 1.38
313.15 K | 1518 | 1.3
318.15 K | 1497 | 1.21
323.15 K | 1491 | 1.15

CCCC[P+](C)(CCCC)CCCC.COS(=O)(=O)[O-] + CN1CCCC1=O
Conditions | speed of sound [m/s] | viscosity [mPa·s]
293.15 K, x1 = 0.056 | 1574 | 9.6
293.15 K, x1 = 0.0914 | 1580 | 19.6
293.15 K, x1 = 0.1311 | 1585 | 28
293.15 K, x1 = 0.1773 | 1588 | 43
293.15 K, x1 = 0.2318 | 1590 | 67
293.15 K, x1 = 0.2971 | 1587 | 100
293.15 K, x1 = 0.3764 | 1582 | 138
293.15 K, x1 = 0.4752 | 1578 | 188
293.15 K, x1 = 0.6014 | 1575 | 290
293.15 K, x1 = 0.7129 | 1573 | 440
293.15 K, x1 = 0.8515 | 1568 | 580
293.15 K, x1 = 0.9022 | 1566 | 630
293.15 K, x1 = 0.9468 | 1565 | 680
293.15 K, x1 = 1 | 1564 | 730
298.15 K, x1 = 0.0914 | 1576 | 13.2
298.15 K, x1 = 0.1311 | 1580 | 18
298.15 K, x1 = 0.1773 | 1584 | 23.7
298.15 K, x1 = 0.2318 | 1585 | 39
298.15 K, x1 = 0.2971 | 1581 | 51
298.15 K, x1 = 0.4752 | 1572 | 114
298.15 K, x1 = 0.6014 | 1567 | 170
298.15 K, x1 = 0.8515 | 1553 | 410
298.15 K, x1 = 0.9022 | 1551 | 450
298.15 K, x1 = 0.9468 | 1549 | 490
303.15 K, x1 = 0.056 | 1556 | 2.01
303.15 K, x1 = 0.1311 | 1564 | 7.8
303.15 K, x1 = 0.3764 | 1561 | 40
303.15 K, x1 = 0.4752 | 1557 | 65
303.15 K, x1 = 0.6014 | 1552 | 108
303.15 K, x1 = 0.7129 | 1548 | 198
303.15 K, x1 = 0.8515 | 1538 | 300
303.15 K, x1 = 1 | 1530 | 380
308.15 K, x1 = 0.056 | 1536 | 2.01
308.15 K, x1 = 0.0914 | 1540 | 2.5
308.15 K, x1 = 0.1311 | 1544 | 3.4
308.15 K, x1 = 0.1773 | 1548 | 6.4
308.15 K, x1 = 0.2318 | 1549 | 8.9
308.15 K, x1 = 0.2971 | 1546 | 13.9
308.15 K, x1 = 0.3764 | 1542 | 20.5
308.15 K, x1 = 0.4752 | 1539 | 31
308.15 K, x1 = 0.6014 | 1536 | 67
308.15 K, x1 = 0.7129 | 1533 | 131
308.15 K, x1 = 0.8086 | 1528 | 192
308.15 K, x1 = 0.8515 | 1524 | 221
308.15 K, x1 = 0.9022 | 1522 | 245
308.15 K, x1 = 0.9468 | 1519 | 270
308.15 K, x1 = 1 | 1514 | 290
313.15 K, x1 = 0.0914 | 1536 | 2.21
313.15 K, x1 = 0.1311 | 1539 | 3.2
313.15 K, x1 = 0.2318 | 1542 | 6.8
313.15 K, x1 = 0.2971 | 1539 | 12.1
313.15 K, x1 = 0.3764 | 1535 | 15.2
313.15 K, x1 = 0.4752 | 1531 | 17.7
313.15 K, x1 = 0.6014 | 1526 | 45
313.15 K, x1 = 0.7129 | 1522 | 95
313.15 K, x1 = 0.8086 | 1517 | 144
313.15 K, x1 = 0.8515 | 1515 | 166
313.15 K, x1 = 0.9022 | 1509 | 186
313.15 K, x1 = 0.9468 | 1507 | 201
313.15 K, x1 = 1 | 1499 | 217
318.15 K, x1 = 0.056 | 1511 | 1.1
318.15 K, x1 = 0.0914 | 1518 | 2.5
318.15 K, x1 = 0.1311 | 1522 | 4.5
318.15 K, x1 = 0.1773 | 1523 | 6.4
318.15 K, x1 = 0.2971 | 1521 | 10.2
318.15 K, x1 = 0.3764 | 1518 | 12.1
318.15 K, x1 = 0.4752 | 1515 | 12.3
318.15 K, x1 = 0.6014 | 1511 | 32
318.15 K, x1 = 0.8515 | 1502 | 128
318.15 K, x1 = 0.9022 | 1498 | 144
318.15 K, x1 = 0.9468 | 1495 | 159
318.15 K, x1 = 1 | 1486 | 169
323.15 K, x1 = 0.056 | 1506 | 1.11
323.15 K, x1 = 0.1311 | 1517 | 3.8
323.15 K, x1 = 0.1773 | 1518 | 5.7
323.15 K, x1 = 0.2318 | 1518 | 10.1
323.15 K, x1 = 0.2971 | 1515 | 11.1
323.15 K, x1 = 0.3764 | 1512 | 13.1
323.15 K, x1 = 0.4752 | 1508 | 13.2
323.15 K, x1 = 0.7129 | 1499 | 59
323.15 K, x1 = 0.8086 | 1495 | 88
323.15 K, x1 = 0.8515 | 1491 | 103
323.15 K, x1 = 0.9022 | 1488 | 116
323.15 K, x1 = 0.9468 | 1484 | 124
323.15 K, x1 = 1 | 1472 | 133
